{"source": "paper PMC11187126", "about": "“Structure and dynamics of the pyroglutamylated RF-amide peptide QRFP receptor GPR103” (Nature Communications, 2024)", "biological_target": "T1, GPR103 T102^2.61A (Homo sapiens, UniProt Q96P65, T102A)", "T1 construct": "we used human full-length QRFPR-encoding plasmids; expressed in transfected cells; host or cells: HEK293 cells, pCAGGS vector", "T1 sequence (Q96P65 1-431 T102A)": "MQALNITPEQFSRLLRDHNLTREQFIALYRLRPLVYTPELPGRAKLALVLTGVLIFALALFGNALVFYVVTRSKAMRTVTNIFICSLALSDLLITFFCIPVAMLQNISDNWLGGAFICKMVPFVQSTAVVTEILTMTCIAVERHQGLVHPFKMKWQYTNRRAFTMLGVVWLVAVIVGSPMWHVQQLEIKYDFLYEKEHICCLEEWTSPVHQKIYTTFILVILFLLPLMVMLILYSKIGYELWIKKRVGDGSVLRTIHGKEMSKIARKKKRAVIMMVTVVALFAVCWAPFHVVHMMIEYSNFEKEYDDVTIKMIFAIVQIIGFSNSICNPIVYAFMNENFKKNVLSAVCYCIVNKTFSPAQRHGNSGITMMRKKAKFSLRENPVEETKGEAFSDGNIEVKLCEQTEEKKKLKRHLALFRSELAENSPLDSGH", "test": "TGFα shedding assay; Exp. level WT (1:1)", "type": "cell-based", "experimental": "For the TGFα shedding assay and the flow cytometry analysis, we used human full-length QRFPR-encoding plasmids. Specifically, GPR103 was N-terminally modified with an HA signal sequence followed by a FLAG epitope and then a flexible linker ([…]; the FLAG epitope is underlined) and inserted into the pCAGGS vector. Plasmid encoding GPR103 mutants were generated using Quickchange Site-Directed Mutagensis kit (Agilent).\nThe TGFα shedding assay was performed as described previously with minor modifications. Plasmid transfection was performed in a 6-well plate with a mixture of 500 ng (per well in a 6-well plate) AP-TGFα-encoding plasmid and 200 ng GPR103-encoding plasmid. After 1-day culture, the transfected cells were harvested by trypsinization, pelleted by centrifugation at 190 × g for 5 min, and washed once with 5 mM HEPES (pH 7.4)-containing Hank’s Balanced Salt Solution (HBSS). After centrifugation, the cells were resuspended in 8 mL of the HEPES-containing HBSS. The cell suspension was seeded in a 96-well culture plate (cell plate) at a volume of 90 μL (per well hereafter) and incubated in a 37 °C incubator with 5% CO2 for 30 min. […] After spinning the cell plates at 190 × g for 2 min, 80 μL of conditioned media was transferred to an empty 96-well plate (conditioned media (CM) plate). Then, 80 μL of AP reaction solution (10 mM p-nitrophenylphosphate (p-NPP), 120 mM Tris-HCl (pH 9.5), 40 mM NaCl, and 10 mM MgCl2) was dispensed into the cell plates and the CM plates. Absorbance at 405 nm of the plates was measured using a microplate reader (SpectraMax 340 PC384, Molecular Devices) before and after 1-h incubation at room temperature. Ligand-induced AP-TGFα release was calculated by subtracting spontaneous AP-TGFα release signal from ligand-induced AP-TGFα release signal. The AP-TGFα release signals were fitted to a four-parameter sigmoidal concentration–response curve, using the Prism 10 software (GraphPad Prism). For each replicate experiment, the pEC50 parameter (negative logarithmic values of EC50 values) of the individual GPR103 mutants were normalized to that of the wild-type GPR103 performed in parallel, and resulting ∆pEC50 values were used to denote ligand response activity of the mutants. […]\nExp. le vel: WT (1:5 0)Exp. le vel: WT (1:5 0)Exp. le vel: WT (1:5 0)Exp. le vel: WT (1:2 0)Exp. le vel: WT (1:2 0)Exp. le vel: WT (1:1 0) […]\nL1 4N - t e r mA F2 5N - t e r mA I 2 6N - t e r mA Y 2 9N - t e r mA C 9 82 .5 7A T10 22 .6 1A Exp . l eve l: WT (1 :5)Exp . l evel : >WT (1 :1)Exp. le vel: WT (1:2 0)Exp. le vel: WT (1:2 0)Exp. le vel: WT (1:5 0)Exp . l eve l: WT (1 :1) […]\nExp. le vel: WT (1:1 0)Exp. le vel: WT (1:2 0) C 1 1 83 .2 5AExp. le vel: WT (1:5 0)Exp. le vel: WT (1:5 0)Exp. le vel: WT (1:2 0)Exp . l eve l: WT (1 :5) […]\nExp. le vel: WT (1:5 0)Exp. le vel: WT (1:1 0)Exp. le vel: WT (1:5 0) E203ECL2AExp . l evel : >WT (1 :1)Exp. le vel: WT (1:5 0)Exp. le vel: WT (1:5 0) […]\nExp . l eve l: WT (1 :1) F28Exp. le vel: WT (1:5 0) C 2 8 56 .4 7AExp. le vel: WT (1:2 0) WExp. le vel: WT (1:2 0) F28Exp. le vel: WT (1:5 0)Exp . l evel : >WT (1 :1) […]\nExp. le vel: WT (1:5 0)Exp. le vel: WT (1:5 0) C 3 2 77 .4 8AExp . l eve l: WT (1 :5)Exp . l evel : >WT (1 :1)Exp . l evel : >WT (1 :1) […]\nSuppl eme nt ary Figure 1 | Mutational analysis of GPR103. […]\nmutants. Data are presented as mean values ± SEM, normally n=3-5; dots), each performed in triplicate. b-d Cell-surface expression (b) and QRFP26-in-duced activation of GPR103 (c, d) were analyzed by the flow cytometry and the TGFα shedding assay, respectively. From the concentration–response curves (a), Emax (c) and ΔpEC50 (d) values relative to the wild type were calculated. Colors in the mutant bars indicate an expression level matching to that of titrated wild type. Statistical analyses were performed using the ordinary one-way ANOVA followed by Dunnett tests with the expression-matched […]", "note": "Where two headings read alike, the source gives them in different places. No end group written: not given here."}
{"substance": "TSGPLGNLAEELNGYSRKKGGFSFRF-NH2 [QRFP26]", "values": [{"measurement": "Emax", "setting": "Exp. #1", "result": 102.50, "unit": "% WT"}, {"measurement": "Emax", "setting": "Exp. #2", "result": 94.07, "unit": "% WT"}, {"measurement": "Emax", "setting": "Exp. #3", "result": 109.18, "unit": "% WT"}, {"measurement": "Emax", "setting": "mean, read-out: Emax", "result": 102, "unit": "%"}, {"measurement": "EC50", "setting": "n = 3", "result": 20.4, "unit": "nM"}, {"measurement": "Emax", "setting": "n = 3, read-out: Emax", "result": "105 ± 3.6", "unit": "%"}]}
